These are literature values, as cited in US20220401509A1, “Composition For Improving Mental State, Production Method For Composition For Improving Mental State, And Use Of Fruit Of Eggplant For Improving Mental State” (SHINSHU UNIVERSITY, priority 2019, published 2022).

Data set [1] deals with spontaneously hypertensive rats (SHRs). The following applies: purified, single oral dose to SHR.
Data set [2] has as its system adult individuals. The note with it: according to the "Foods with Function Claims" in Japan.

Regarding `CCCC(=O)OCC[N+](C)(C)C` [butyrylcholine], the antihypertensive effect entry in data set [1] was “had an antihypertensive effect”.
Turning to `O=C(/C=C/c1ccc(O)c(O)c1)O[C@@H]1C[C@](O)(C(=O)O)C[C@@H](O)[C@H]1O` [CA, chlorogenic acid], the “effective dose for antihypertensive effect in adult individuals” value in data set [2] is listed as 271 mg/day.
As to `CC(O)C(=O)OCC[N+](C)(C)C.[I-]` (centres unmarked) [lactoylcholine], in data set [1], the antihypertensive effect result was “had an antihypertensive effect”.
For `NCCCC(=O)O` [GABA, γ-aminobutyric acid], the “effective dose for antihypertensive effect in adult individuals” value in data set [2] is 12.3 mg/day.
Regarding `CCC(=O)OCC[N+](C)(C)C` [propionylcholine], the antihypertensive effect result in data set [1] was “had an antihypertensive effect”.
